# Data published in publication PMC5000727, “Molecular Insights into the Potential Toxicological Interaction of 2-Mercaptothiazoline with the Antioxidant Enzyme—Catalase” (International Journal of Molecular Sciences, 2016).
# Target: T1, catalase (CAT), from bovine liver (Bos taurus, UniProt P00432)
# T1 construct: native enzyme from bovine liver, commercial (Sigma), EC 1.11.1.6; homotetramer; PDB 1TGU printed only as docking model
# T1 sequence (P00432 2-527): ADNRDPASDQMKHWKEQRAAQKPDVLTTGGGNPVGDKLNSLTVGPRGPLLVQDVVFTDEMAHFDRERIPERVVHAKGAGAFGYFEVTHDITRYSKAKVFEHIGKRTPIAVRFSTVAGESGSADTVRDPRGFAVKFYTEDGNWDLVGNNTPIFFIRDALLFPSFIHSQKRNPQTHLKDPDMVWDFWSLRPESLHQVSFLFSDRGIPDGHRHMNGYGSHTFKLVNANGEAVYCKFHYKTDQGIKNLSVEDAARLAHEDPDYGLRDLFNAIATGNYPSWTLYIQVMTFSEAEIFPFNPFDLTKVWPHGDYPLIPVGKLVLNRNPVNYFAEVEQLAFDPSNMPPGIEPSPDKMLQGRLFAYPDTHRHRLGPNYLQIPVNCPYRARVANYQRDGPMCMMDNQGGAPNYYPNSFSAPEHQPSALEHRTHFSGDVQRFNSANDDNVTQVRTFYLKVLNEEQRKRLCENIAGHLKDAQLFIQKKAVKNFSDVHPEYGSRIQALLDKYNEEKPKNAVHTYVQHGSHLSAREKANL
# Assay: intrinsic fluorescence quenching (ex […] nm)
# Assay type: binding
# Settings: double-log; pH 7.4, 291 K, phosphate buffer; n = 1.14; unit printed mol·L^−1 but must be L·mol^−1 (printed ΔG° agrees); also measured at 300, 309, 318 K
structure (smiles),measurement,value
"S=C1NCCS1 [2-mercaptothiazoline, 1,3-thiazolidine-2-thione]",Ka (× 10^4 mol.L^-1),2.97 × 10^4 mol·L^−1
